This is an account of results in patent EP0590919A1, “Therapeutic agents for parkinson's disease” (KYOWA HAKKO KOGYO CO., LTD., priority 1992, dated 1994).

In series [1] the target is T1, A₂ receptor (Rattus norvegicus, UniProt P30543).
T1 construct: from tissue; host or cells: rat corpus striatum membrane preparation
Briefly: Adenosine A₂ receptor binding test (³H-CGS 21680 binding). The following applies: [^3H]CGS 21680 was used, rat corpus striatum, read-out: A2 Receptor Inhibition (%); for inhibition at 1 µM: 10^-6M; for inhibition at 0.1 µM: 10^-7M. The method, then: (§1) The similar procedure as in the above-described adenosine A₁ receptor binding test was repeated using rat corpus striatum to obtain the final precipitate of the tissue thereof. The precipitate was suspended in 50 mM Tris HCl buffer containing 10 mM magnesium chloride and 0.02 unit/mg tissue of adenosine deaminase (manufactured by Sigma Co.) to give a tissue concentration of 5 mg (wet weight)/ml.
The similar procedure as above was repeated to determine the radioactivity bound to the A₂ receptors using 50 µl of CGS 21680 labeled with tritium [³H-2-[p-(2-carboxyethyl)-phenethylamino]-5'-(N-ethylcarboxamide)adenosine: 40 Ci/mmol, manufactured by New England Nuclear Co. (J. Pharmacol. Exp. Ther., 251, 888 (1989)] (final concentration: 4.0 nM) in place of 50 µl of the mixture of N-ethylcarboxamidoadenosine labeled with tritium (³H-NECA: 26 Ci/mmol, manufactured by Amersham Co.) (final concentration: 3.8 nM) and cyclopentyladenosine (CPA, manufactured by Sigma Co.) (final concentration: 50 nM).
The inhibition rate of the test compound against the binding of A₂ receptors (³H-CGS 21680 binding) was calculated by the following equation: [formula] [Notes] • 1. "B" means the amount of radioactivity of ³H-CGS 21680 bound in the presence of a test compound at a concentration shown in Table 4. • 2. "T" means the amount of radioactivity of ³H-CGS 21680 bound in the absence of a test compound. • 3. "N" means the amount of radioactivity of ³H-CGS 21680 bound in the presence of 100 µM CPA.

Another series relates to dd-strain male mice. The series can be described thus: Acute toxicity test (minimum lethal dose, oral). Format: in vivo. The following applies: oral administration, three mice per group, mortality seven days after administration. The method, then:
Test compounds were orally administered to groups of dd-strain male mice weighing 20 ± 1 g, each group consisting of three mice. Seven days after the administration, minimum lethal dose (MLD) of each compound was determined by observing the mortality.

Series [2] concerns Haloperidol-Induced Catalepsy. Briefly: Effect on haloperidol-induced catalepsy. It is filed as in vivo, mice. The following applies: for ED50: Mus musculus, 1 h, ten mice at each dose, effective = catalepsy score 3 or less, Probit analysis, oral, read-out: ED₅₀; for Number of the Animals Showing Remission: of five mice, catalepsy score not more than 4 points; for Number of the Animals Showing Remission / Remission Rate (%) / Total Score: 10 mg/kg orally; for Remission Rate (%): rate of decrease in total score based on control group; for Total Score: total catalepsy score of five mice (25 points at the full), haloperidol 1.0 mg/kg i.p. The method, then:
Haloperidol (Janssen Pharmaceutica) suspended in 0.3% CMC was intraperitoneally administered to each mouse at a dose of 1.0 mg/kg. Test compounds were suspended in 0.3% CMC or in injectable distilled water (Otsuka Pharmaceutical Co., Ltd.) containing Tween 80. L-DOPA (Kyowa Hakko Kogyo Co., Ltd.) and benserazide hydrochloride (Kyowa Hakko Kogyo Co., Ltd.) were suspended in 0.3% CMC. One hour after the haloperidol administration, the test compound suspensions and the control suspension [injectable distilled water (Otsuka Pharmaceutical Co., Ltd.) containing Tween 80] containing no test compound were orally administered to separate groups of the mice (0.1 ml per 10 g of body weight). One hour after the administration of the test compound, the forelimbs of each mouse and subsequently the hindlimbs of the same mouse were placed on a 4.5 cm-high, 1.0 cm-wide bar and catalepsy was estimated. […] The catalepsy score and the standard of judgment are shown below. […] The number of the animals showing remission against catalepsy is the number of the mice for which the catalepsy score was not more than 4 points. […] The ED₅₀ values were calculated by Probit analysis.

Series [3] deals with T1, A₂ receptor. Briefly: Adenosine A₂ receptor binding test (³H-NECA binding). As to conditions: ³H-NECA binding, rat corpus striatum, read-out: Inhibition (%) A₂ Receptor; for inhibition at 100 µM: 10⁻⁴M; for inhibition at 10 µM: 10⁻⁵M; for inhibition at 1 µM: 10⁻⁶M; for inhibition at 0.1 µM: 10⁻⁷M. The procedure: as §1
The mixture solution was allowed to stand at 25°C for 120 minutes and then treated in the same manner as in the adenosine A₁ receptor binding test to determine the radioactivity bound to the A₂ receptors.
The inhibition rate of the test compound against the binding of A₂ receptor (³H-NECA binding) was calculated by the following equation: [formula] [Notes] • 1.

T1 sequence (P30543 whole entry): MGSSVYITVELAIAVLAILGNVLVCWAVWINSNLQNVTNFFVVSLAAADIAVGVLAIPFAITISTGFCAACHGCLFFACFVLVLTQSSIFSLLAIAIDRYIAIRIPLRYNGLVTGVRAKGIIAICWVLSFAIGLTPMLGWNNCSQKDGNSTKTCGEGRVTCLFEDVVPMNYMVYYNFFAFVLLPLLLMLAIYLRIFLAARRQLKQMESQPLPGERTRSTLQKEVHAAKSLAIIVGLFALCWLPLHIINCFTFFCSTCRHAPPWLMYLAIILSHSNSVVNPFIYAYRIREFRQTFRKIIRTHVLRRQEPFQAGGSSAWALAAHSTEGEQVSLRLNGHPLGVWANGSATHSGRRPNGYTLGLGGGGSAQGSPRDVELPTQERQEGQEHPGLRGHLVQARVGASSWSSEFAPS

Turning to `CCn1c(=O)c2[nH]c(/C=C/c3ccc(OC)c(F)c3)nc2n(CC)c1=O` [Compound 102, (E)-1,3-Diethyl-8-(3-fluoro-4-methoxystyryl)xanthine], on A₂ receptor [1], the inhibition at 1 µM was found to be 94% and the inhibition at 0.1 µM was 70%. The same molecule returned an MLD in the series with dd-strain male mice of over 100 mg/kg.

Turning to `CCn1c(=O)c2c(nc(/C=C/c3ccccc3F)n2C)n(CC)c1=O` [Compound 98, (E)-1,3-Diethyl-8-(2-fluorostyryl)-7-methylxanthine], on A₂ receptor [1], the inhibition at 1 µM was 95% and the inhibition at 0.1 µM turned out to be 92%. The molecule further had an MLD in the series on dd-strain male mice of over 100 mg/kg.

In the case of `CCn1c(=O)c2[nH]c(/C=C/c3ccccc3F)nc2n(CC)c1=O` [Compound 97, (E)-1,3-Diethyl-8-(2-fluorostyryl)xanthine], at A₂ receptor [1], the inhibition at 1 µM is 87% and the inhibition at 0.1 µM stood at 66%. The molecule also came in with an MLD with dd-strain male mice of over 100 mg/kg.

As to `CCn1c(=O)c2c(nc(/C=C/c3cccc(Oc4ccccc4)c3)n2C)n(CC)c1=O` [Compound 120, (E)-1,3-Diethyl-7-methyl-8-(3-phenoxystyryl)xanthine], on A₂ receptor [1], the inhibition at 1 µM was 75% and the inhibition at 0.1 µM was found to be 89%. The molecule further yielded an MLD with dd-strain male mice of over 100 mg/kg.

For `CCCCOc1ccc(/C=C/c2nc3c(c(=O)n(CC)c(=O)n3CC)n2C)cc1` [Compound 42, (E)-8-(4-Butoxystyryl)-1,3-diethyl-7-methylxanthine], at A₂ receptor [1], the inhibition at 1 µM is 87% and the inhibition at 0.1 µM stood at 46%. The molecule also returned an MLD in the series with dd-strain male mice of over 100 mg/kg.

With `CCn1c(=O)c2[nH]c(/C=C/c3ccc(C)cc3)nc2n(CC)c1=O` [Compound 43, (E)-1,3-Diethyl-8-(4-methylstyryl)xanthine], at A₂ receptor [1], the inhibition at 1 µM was found to be 70% and the inhibition at 0.1 µM is 68%. Further, the MLD in the series with dd-strain male mice was over 100 mg/kg.

As for `CCn1c(=O)c2c(nc(/C=C/c3ccc(OCCCCN=[N+]=[N-])cc3)n2C)n(CC)c1=O` [Compound 115, (E)-8-[4-(4-Azidobutoxy)styryl]-1,3-diethyl-7-methylxanthine], on A₂ receptor [1], the inhibition at 1 µM amounted to 79% and the inhibition at 0.1 µM is 34%. Moreover, the MLD in the series on dd-strain male mice is listed as over 100 mg/kg.

As to `CCn1c(=O)c2[nH]c(/C=C/c3cc(OC)c4c(c3)OCO4)nc2n(CC)c1=O` [Compound 106, (E)-1,3-Diethyl-8-(3-methoxy-4,5-methylenedioxystyryl)xanthine], at A₂ receptor [1], the inhibition at 1 µM came out at 94% and the inhibition at 0.1 µM was 83%. Besides, the MLD with dd-strain male mice is reported as over 100 mg/kg.

In the case of `CCn1c(=O)c2c(nc(/C=C/c3ccc(OC)c(OC)c3Cl)n2C)n(CC)c1=O` [Compound 50, (E)-8-(2-Chloro-3,4-dimethoxystyryl)-1,3-diethyl-7-methylxanthine], in series [2], the ED50 was 3.8 mg/kg, the “Number of the Animals Showing Remission” value turned out to be 4, the “Remission Rate (%)” value was determined as 24% and the “Total Score” value is given as 19. On A₂ receptor [3], the inhibition at 100 µM was 93%, the inhibition at 10 µM amounted to 88%, the inhibition at 1 µM was 95% and the inhibition at 0.1 µM was 88%. The molecule further came in with an MLD in the series on dd-strain male mice of over 300 mg/kg.

In the case of `COc1ccc(/C=C/c2nc3c(c(=O)n(C)c(=O)n3C)n2C)c(Cl)c1OC` [Compound 52, (E)-8-(2-Chloro-3,4-dimethoxystyryl)caffeine], in series [2], the ED50 came to 1.7 mg/kg, the “Number of the Animals Showing Remission” value is given as 5, the “Remission Rate (%)” value is 60% and the “Total Score” value was determined as 10. For the same molecule, on A₂ receptor [3], the inhibition at 100 µM is 83%, the inhibition at 10 µM came to 81%, the inhibition at 1 µM was 88% and the inhibition at 0.1 µM turned out to be 78%. Further, the MLD in the series with dd-strain male mice is over 300 mg/kg.

Regarding `CCn1c(=O)c2c(nc(/C=C/c3ccc(OC)c(Br)c3)n2C)n(CC)c1=O` [Compound 56, (E)-8-(3-Bromo-4-methoxystyryl)-1,3-diethyl-7-methylxanthine], in series [2], the “Number of the Animals Showing Remission” value is 5, the “Remission Rate (%)” value is 44% and the “Total Score” value came to 14. Further, at A₂ receptor [3], the inhibition at 100 µM worked out at 99%, the inhibition at 10 µM was found to be 97%, the inhibition at 1 µM came to 92% and the inhibition at 0.1 µM was 74%. This molecule also displayed an MLD in the series with dd-strain male mice of over 100 mg/kg.

With `CCn1c(=O)c2c(nc(/C(F)=C\c3ccccc3)n2C)n(CC)c1=O` [Compound 76, (E)-1,3-Diethyl-8-(α-fluorostyryl)-7-methylxanthine], in series [2], the “Number of the Animals Showing Remission” value was 4, the “Remission Rate (%)” value is 40% and the “Total Score” value is listed as 15. Also, at A₂ receptor [3], the inhibition at 1 µM is 69% and the inhibition at 0.1 µM turned out to be 30%. This molecule also gave an MLD in the series with dd-strain male mice of over 100 mg/kg.

`CCOc1ccc(/C=C/c2nc3c(c(=O)n(CC)c(=O)n3CC)n2C)cc1` [Compound 36, (E)-8-(4-Ethoxystyryl)-1,3-diethyl-7-methylxanthine]: in series [2], the ED50 was 1.5 mg/kg, the “Number of the Animals Showing Remission” value is listed as 5, the “Remission Rate (%)” value amounted to 76% and the “Total Score” value is 6. On A₂ receptor [3], the inhibition at 1 µM turned out to be 101% and the inhibition at 0.1 µM was determined as 71%. In the series on dd-strain male mice, this molecule displayed an MLD of over 300 mg/kg.

With `CCn1c(=O)c2c(nc(/C=C/c3ccc(F)c(F)c3)n2C)n(CC)c1=O` [Compound 54, (E)-8-(3,4-Difluorostyryl)-1,3-diethyl-7-methylxanthine], in series [2], the “Number of the Animals Showing Remission” value came to 5, the “Remission Rate (%)” value is 28% and the “Total Score” value is given as 18. On A₂ receptor [3], the inhibition at 100 µM was 96%, the inhibition at 10 µM turned out to be 95%, the inhibition at 1 µM stood at 94% and the inhibition at 0.1 µM was 63%. This molecule also yielded an MLD in the series on dd-strain male mice of over 300 mg/kg.

For the molecule `COc1ccc(/C=C/c2nc3c([nH]2)c(=O)n(C)c(=O)n3C)c(OC)c1C` [Compound 31, (E)-8-(2,4-Dimethoxy-3-methylstyryl)theophylline], in series [2], the “Number of the Animals Showing Remission” value came to 4, the “Remission Rate (%)” value is listed as 36% and the “Total Score” value amounted to 16. On A₂ receptor [3], the inhibition at 100 µM came out at 79%, the inhibition at 10 µM was 89%, the inhibition at 1 µM is 82% and the inhibition at 0.1 µM turned out to be 74%. Further, the MLD in the series with dd-strain male mice is on record as over 100 mg/kg.

Take `CCn1c(=O)c2c(nc(/C=C/c3cc(OC)cc(OC)c3)n2C)n(CC)c1=O` [Compound 68, (E)-8-(3,5-Dimethoxystyryl)-1,3-diethyl-7-methylxanthine]: in series [2], the “Number of the Animals Showing Remission” value turned out to be 5, the “Remission Rate (%)” value stood at 80% and the “Total Score” value was determined as 5. For the same molecule, at A₂ receptor [3], the inhibition at 1 µM came to 88% and the inhibition at 0.1 µM was 81%. In the series on dd-strain male mice, this molecule returned an MLD of over 300 mg/kg.

For the molecule `CCCOc1ccc(/C=C/c2nc3c(c(=O)n(CC)c(=O)n3CC)n2C)cc1` [Compound 38, (E)-1,3-Diethyl-7-methyl-8-(4-propoxystyryl)xanthine], in series [2], the ED50 was 2.5 mg/kg, the “Number of the Animals Showing Remission” value is 4, the “Remission Rate (%)” value is given as 68% and the “Total Score” value worked out at 8. For the same molecule, at A₂ receptor [3], the inhibition at 1 µM was found to be 94% and the inhibition at 0.1 µM worked out at 71%. The MLD with dd-strain male mice is recorded as over 300 mg/kg.

The term inhibition denotes the relative decrease from the control value, in per cent.
